Source: PMC9780942, “Antimicrobial Activity and Immunomodulatory Properties of Acidocin A, the Pediocin-like Bacteriocin with the Non-Canonical Structure” (Membranes, 2022)
Positions of bridges follow the written chain, without caps; N, C: chain ends. No end group written: not given here.

Columns and labels:
Assay type in all cases: cell-based
[1] = tested on: E. coli XDR CI 1057; settings: XDR CI 1057, 24 h
How it was run: (§1)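 MIC read as the minimum peptide concentration without visible growth, aided by 2 h resazurin (20 µg/mL) when needed. Cells from mid-log cultures (10^6 CFU/mL, 2x MHB or 3% TSB for Listeria) met two-fold bacteriocin dilutions in 0.1% BSA for 24 h at 37 °C with shaking.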

[2] = tested on: L. lactis MK66; settings: MK66, 24 h
How it was run: as §1

[3] = tested on: E. coli ML-35p; settings: 24 h
How it was run: as §1

[4] = tested on: P. aeruginosa MDR CI 1995; settings: MDR CI 1995, 24 h
How it was run: as §1

[5] = tested on: B. subtilis B-886; settings: B-886, 24 h
How it was run: as §1

[6] = tested on: B. licheniformis B-511; settings: 24 h
How it was run: as §1

[7] = tested on: E. coli ATCC 25922; settings: ATCC 25922, 24 h
How it was run: as §1

[8] = tested on: E. coli SQ110; settings: SQ110, 24 h
How it was run: as §1

[9] = tested on: S. aureus 209P; settings: 24 h
How it was run: as §1

[10] = tested on: M. phlei Ac-1221; settings: 24 h
How it was run: as §1

[11] = tested on: M. luteus Ac-2229; settings: Ac-2229, 24 h
How it was run: as §1

[12] = tested on: A. baumannii XDR CI 2675; settings: XDR CI 2675, 24 h
How it was run: as §1

[13] = tested on: primary CD14+ blood monocytes; experiment: Cytokine response by human monocytes, multiplex xMAP; settings: 2 µM peptide, 24 h, supernatant; for MCP-3: untreated control 52.14; for TNFa: untreated control 67.34; for PDGF-AB/BB: untreated control 86.09; for MIG: untreated control 205.59

In the case of “TYYGNGVSCNKKGCSVDWGKAISIIGNNSAANLATGGAAGWKS (disulfide 9-14) [Avicin A]”, the “Minimum Inhibitory Concentration” value [1] is reported as >32 µM, the “Minimum Inhibitory Concentration” value [2] is reported as >32 µM and the “Minimum Inhibitory Concentration” value [3] is reported as >32 µM. The “Minimum Inhibitory Concentration” value [4] was >32 µM, the “Minimum Inhibitory Concentration” value [5] was >32 µM and the “Minimum Inhibitory Concentration” value [6] was >32 µM. For the same sequence, the “Minimum Inhibitory Concentration” value [7] was >32 µM, the “Minimum Inhibitory Concentration” value [8] was >32 µM and the “Minimum Inhibitory Concentration” value [9] was >32 µM. The “Minimum Inhibitory Concentration” value [10] was >32 µM, the “Minimum Inhibitory Concentration” value [11] was >32 µM and the “Minimum Inhibitory Concentration” value [12] was >32 µM. The IL-1b ([13]; untreated control 2.28) was 17.13 pg/mL, the IL-6 ([13]; untreated control 4.48) was 2787 pg/mL and the VEGFa ([13]; untreated control 5.44) was <1.52↓ pg/ml. The MIP-1a ([13]; untreated control 11.73) was 6628 pg/mL, the PDGF-AA ([13]; untreated control 12.5) was 10.87 pg/mL and the sCD40L ([13]; untreated control 15.86) was 45.71 pg/mL. For the same sequence, the IP-10 ([13]; untreated control 19.67) was 21.71 pg/mL, the MIP-1b ([13]; untreated control 34.63) was 3805 pg/mL and the MCP-3 [13] was 227 pg/mL. The MCP-3 ([13]; listed as AviA) was 227.15 pg/mL, the TNFa [13] was 17,982 pg/ml and the TNFa ([13]; listed as AviA) was 17982 pg/mL. For the same sequence, the PDGF-AB/BB [13] was 99 pg/mL, the PDGF-AB/BB ([13]; listed as AviA) was 99.49 pg/mL and the MIG [13] was 729 pg/mL. The MIG ([13]; listed as AviA) was 729.91 pg/mL, the IL-1RA ([13]; untreated control 261.2) was 253.61 pg/mL and the GROa ([13]; untreated control 311.89) was 4832 pg/mL. For the same sequence, the MDC ([13]; untreated control 463.06) was 2303 pg/mL, the MCP-1 ([13]; untreated control 464.5) was 3950 pg/mL and the IL-8 ([13]; untreated control 12488) was >36420↑ pg/ml. For the same sequence, the IL-7 ([13]; untreated control <0.20) was <0.20↓ pg/ml, the IL-18 ([13]; untreated control <0.20) was <0.20↓ pg/ml and the IL-5 ([13]; untreated control <0.26) was <0.26↓ pg/ml. The IL-4 ([13]; untreated control <0.33) was <0.33↓ pg/ml, the TNFb ([13]; untreated control <0.49) was 7.81 pg/mL and the TGF-a ([13]; untreated control <0.53) was 2.38 pg/mL. The IL-3 ([13]; untreated control <0.68) was <0.68↓ pg/ml, the IL-2 ([13]; untreated control <0.85) was 0.86 pg/mL and the IL-10 ([13]; untreated control <1.23) was 4.28 pg/mL. The FLT-3L ([13]; untreated control <1.35) was <1.35↓ pg/ml, the GM-CSF ([13]; untreated control <1.39) was 12.72 pg/mL and the IL-15 ([13]; untreated control <1.45) was 1.55 pg/mL. The “IL-12 (p70)” value ([13]; untreated control <1.58) was <1.58↓ pg/ml, the IFNg ([13]; untreated control <1.79) was <1.79↓ pg/ml and the IL-17A ([13]; untreated control <2.00) was <2.00↓ pg/ml. It also gave an IL-1a ([13]; untreated control <2.78) of 10.22 pg/mL, an RANTES ([13]; untreated control <2.79) of 638.27 pg/mL and an IL-13 ([13]; untreated control <2.90) of 7.71 pg/mL. For the same sequence, the G-CSF ([13]; untreated control <3.18) was 190 pg/mL, the “IL-12 (p40)” value ([13]; untreated control <3.18) was 19.93 pg/mL and the G-CSF ([13]; untreated control <3.18, listed as AviA) was 190.3 pg/mL. The IFNa2 ([13]; untreated control <3.89) was 4.69 pg/mL, the Eotaxin ([13]; untreated control <4.09) was <4.09↓ pg/ml and the IL-9 ([13]; untreated control <4.87) was 6.5 pg/mL. For the same sequence, the EGF ([13]; untreated control <4.94) was 6.51 pg/mL, the IL-22 ([13]; untreated control <7.95) was 15.81 pg/mL and the IL-27 ([13]; untreated control <11.45) was 31.07 pg/mL. The FGF-2 ([13]; untreated control <12.00) was 33.02 pg/mL, the IL-17F ([13]; untreated control <14.61) was <14.61↓ pg/ml and the Fractalkine ([13]; untreated control <19.20) was <19.20↓ pg/ml. For the same sequence, the IL-17E/IL-25 ([13]; untreated control <19.97) was <19.97↓ pg/ml and the M-GSF ([13]; untreated control <23.43) was 261.13 pg/mL.
